Assay results: patent US20240116985A1, “STAPLED PEPTIDES AND METHODS THEREOF” (priority 2020, published 2024)
Like-named read-outs stand apart in the source and are kept apart here.

Experiments:
[1] = target: T1, full-length beta-Catenin (Uniprot ID P35222) (Homo sapiens, UniProt P35222); test: Fluorescence polarization IC50 (beta-catenin / 5FAM-TCF4 10-53 competition); format: binding
T1 construct: 10 nM full-length beta-Catenin (Uniprot ID P35222)
T1 sequence (P35222 1-781): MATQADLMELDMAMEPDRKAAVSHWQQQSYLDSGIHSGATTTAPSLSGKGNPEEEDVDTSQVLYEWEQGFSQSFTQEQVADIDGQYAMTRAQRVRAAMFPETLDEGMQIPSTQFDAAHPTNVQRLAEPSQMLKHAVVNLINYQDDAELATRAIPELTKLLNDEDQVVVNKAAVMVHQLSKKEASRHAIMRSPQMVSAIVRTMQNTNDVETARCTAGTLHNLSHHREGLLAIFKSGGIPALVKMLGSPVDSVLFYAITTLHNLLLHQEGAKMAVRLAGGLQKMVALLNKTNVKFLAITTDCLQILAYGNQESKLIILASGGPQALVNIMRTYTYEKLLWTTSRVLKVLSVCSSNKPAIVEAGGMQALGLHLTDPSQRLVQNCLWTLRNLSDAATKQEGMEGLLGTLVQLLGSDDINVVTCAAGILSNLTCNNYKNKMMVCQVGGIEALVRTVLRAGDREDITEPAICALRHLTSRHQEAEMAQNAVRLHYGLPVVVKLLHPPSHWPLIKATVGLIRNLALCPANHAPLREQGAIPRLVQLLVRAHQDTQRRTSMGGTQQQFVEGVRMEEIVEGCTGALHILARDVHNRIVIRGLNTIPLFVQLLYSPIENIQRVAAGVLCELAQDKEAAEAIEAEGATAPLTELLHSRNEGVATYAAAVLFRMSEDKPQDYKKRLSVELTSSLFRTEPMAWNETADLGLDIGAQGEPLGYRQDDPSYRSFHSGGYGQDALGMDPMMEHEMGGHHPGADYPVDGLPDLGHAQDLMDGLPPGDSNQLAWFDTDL

[2] = target: T2, beta-catenin/TCF4 engagement (Homo sapiens, UniProt P35222); test: Nano-BRET target engagement assay (B-cat-Halo & TCF4-Luc in HEK293 cells); format: cell-based
T2 construct: expressed in transfected cells; host or cells: HEK293
T2 sequence (P35222 1-781): T1 sequence (P35222 1-781)

[3] = fluorescence polarization, read-out: beta-Catenin FP IC50
[4] = absolute IC50, read-out: NanoBRET Abs IC50

SMILES: CC(=O)N1CCC[C@]12CC=CCCCC1(CCCC=CCCCOC(=O)N3CC[C@@](C(=O)N[C@@H](Cc4ccccc4Cl)C(=O)N[C@@H](Cc4csc5ccccc45)C(=O)N[C@@H](C)CO)(C3)NC(=O)[C@H](CC(C)C)NC(=O)[C@H](Cc3ccccc3)NC(=O)[C@H](C)NC(=O)[C@H](C)NC(=O)[C@H](CC(=O)O)NC(=O)[C@H](CC(=O)O)NC1=O)NC(=O)[C@H](CC(C)(C)C)NC(=O)[C@H](CC(=O)O)NC2=O (stereo partly drawn) [I-1250, Ac-PL3-Asp-Npg-B5-Asp-Asp-Ala-Ala-Phe-Leu-PyrS2-2C1F-BztA-Alao1]
- IC50 [1, 3]: 31 nM
- IC50 [2, 4]: > 20000 nM

SMILES: CC(=O)N1CCC[C@]12CC=CCCCC1(CCCC=CCCCCCC[C@@](C)(C(=O)N[C@@H](Cc3ccccc3)C(=O)N[C@@H](Cc3csc4ccccc34)C(=O)N[C@@H](CCC(N)=O)C(N)=O)NC(=O)[C@H](CC(C)C)NC(=O)[C@H](Cc3ccccc3)NC(=O)[C@H](C)NC(=O)[C@H](C)NC(=O)[C@H](CCC(=O)O)NC(=O)[C@H](CC(=O)O)NC1=O)NC(=O)[C@H](CCCCN)NC(=O)[C@H](CC(=O)O)NC2=O (stereo partly drawn) [I-1553, Ac-PL3-Asp-Lys-B5-Asp-Glu-Ala-Ala-Phe-Leu-S8-Phe-BztA-Gln-NH2]
- IC50 [1, 3]: 133 nM
- IC50 [2, 4]: > 20000 nM

SMILES: CC(=O)N1CCC[C@]12CC=CCCCC1(CCCC=CCCCOC(=O)N3CC[C@@](C(=O)N[C@@H](Cc4ccsc4)C(=O)N[C@@H](Cc4csc5ccccc45)C(=O)N[C@@H](CC(C)C)C(N)=O)(C3)NC(=O)[C@H](CC(C)C)NC(=O)[C@H](Cc3ccccc3)NC(=O)[C@H](C)NC(=O)[C@H](C)NC(=O)[C@H](CC(=O)O)NC(=O)[C@H](CC(=O)O)NC1=O)NC(=O)[C@H](CC(C)C)NC(=O)[C@H](CC(=O)O)NC2=O (stereo partly drawn) [I-1410, Ac-PL3-Asp-Leu-B5-Asp-Asp-Ala-Ala-Phe-Leu-PyrS2-3Thi-BztA-Leu-NH2]
- IC50 ([1]; beta-Catenin FP IC50, fluorescence polarization): 80 nM
- IC50 ([2]; NanoBRET Abs IC50, absolute IC50): 29300 nM

SMILES: CC(=O)N1CCC[C@]12CC=CCCCC1(CCCC=CCCCOC(=O)N3CC[C@@](C(=O)N[C@@H](Cc4ccccc4C(F)(F)F)C(=O)N[C@@H](Cc4csc5ccccc45)C(=O)N[C@@H](CCC(N)=O)C(=O)N[C@@H](CC(C)C)C(=O)N[C@H](C(N)=O)C(C)C)(C3)NC(=O)[C@H](CC(C)C)NC(=O)[C@H](Cc3ccccc3)NC(=O)[C@H](C)NC(=O)[C@H](C)NC(=O)[C@H](Cc3cccc(C(=O)O)c3)NC(=O)[C@H](CC(=O)O)NC1=O)NC(=O)[C@H](CC(C)(C)C)NC(=O)[C@H](CC(=O)O)NC2=O (stereo partly drawn) [I-2379, Ac-PL3-Asp-Npg-B5-Asp-3COOHF-Ala-Ala-Phe-Leu-PyrS2-2F3MeF-BztA-Gln-Leu-Val-NH2]
- IC50 [1, 3]: 246 nM
- IC50 [2, 4]: 5000 nM

SMILES: CC(=O)N1CCC[C@]12CC=CCCCC1(CCCC=CCCCCCC[C@@](C)(C(=O)N[C@@H](Cc3ccccc3Cl)C(=O)N[C@@H](Cc3csc4ccccc34)C(=O)N[C@@H](CCC(N)=O)C(N)=O)NC(=O)[C@H](CCO)NC(=O)[C@H](Cc3ccccc3)NC(=O)[C@H](C)NC(=O)[C@H](C)NC(=O)[C@H](CC(=O)O)NC(=O)[C@H](CC(=O)O)NC1=O)NC(=O)[C@H](CC(C)(C)C)NC(=O)[C@H](CC(=O)O)NC2=O (stereo partly drawn) [I-1395, Ac-PL3-Asp-Npg-B5-Asp-Asp-Ala-Ala-Phe-Hse-S8-2C1F-BztA-Gln-NH2]
- IC50 [1, 3]: 33 nM
- IC50 [2, 4]: 15400 nM

SMILES: CC(=O)N1CCC[C@]12CC=CCCCC1(CCCC=CCCCOC(=O)N3CC[C@@](C(=O)N[C@@H](Cc4ccsc4)C(=O)N[C@@H](Cc4csc5ccccc45)C(=O)N[C@@H](CCC(N)=O)C(N)=O)(C3)NC(=O)[C@H](CC(C)C)NC(=O)[C@H](Cc3ccccc3)NC(=O)[C@H](C)NC(=O)[C@H](CC(=O)N3CCOCC3)NC(=O)[C@H](CC(=O)O)NC(=O)[C@H](CC(=O)O)NC1=O)NC(=O)[C@H](CC(C)(C)C)NC(=O)[C@H](CC(=O)O)NC2=O (stereo partly drawn) [I-1483, Ac-PL3-Asp-Npg-B5-Asp-Asp-MorphAsn-Ala-Phe-Leu-PyrS2-3Thi-BztA-Gln-NH2]
- IC50 [1, 3]: 22 nM
- IC50 [2, 4]: > 20000 nM

SMILES: CC(=O)N1CCC[C@]12CC=CCCCC1(CCCC=CCCCOC(=O)N3CC[C@@](C(=O)N[C@@H](Cc4ccccc4Cl)C(=O)N[C@@H](Cc4csc5ccccc45)C(=O)N[C@@H](CO)C(N)=O)(C3)NC(=O)[C@H](CC(C)C)NC(=O)[C@H](Cc3ccccc3)NC(=O)[C@H](C)NC(=O)[C@H](C)NC(=O)[C@H]([C@@H](C)O)NC(=O)[C@H](CC(=O)O)NC1=O)NC(=O)[C@H](CC(C)(C)C)NC(=O)[C@H](CC(=O)O)NC2=O (stereo partly drawn) [I-1172, Ac-PL3-Asp-Npg-B5-Asp-Thr-Ala-Ala-Phe-Leu-PyrS2-2C1F-BztA-Ser-NH2]
- IC50 [1, 3]: 45 nM
- IC50 [2, 4]: 19400 nM

SMILES: CC(=O)N1CCC[C@]12CC=CCCCC1(CCCC=CCCCOC(=O)N3CC[C@@](C(=O)N[C@@H](Cc4ccccc4C)C(=O)N[C@@H](Cc4csc5ccccc45)C(=O)N[C@@H](CCC(N)=O)C(N)=O)(C3)NC(=O)[C@H](CC(C)C)NC(=O)[C@H](Cc3ccccc3)NC(=O)[C@H](C)NC(=O)[C@H](C)NC(=O)[C@H](CN(CC(=O)O)CC(F)(F)F)NC(=O)[C@H](CC(=O)O)NC1=O)NC(=O)[C@H](CC(C)(C)C)NC(=O)[C@H](CC(=O)O)NC2=O (stereo partly drawn) [I-1725, Ac-PL3-Asp-Npg-B5-Asp-TfeGA-Ala-Ala-Phe-Leu-PyrS2-2MeF-BztA-Gln-NH2]
- IC50 [1, 3]: 15 nM
- IC50 [2, 4]: 10000 nM

SMILES: CC(=O)N1CCC[C@]12CC=CCCCC1(CCCC=CCCCOC(=O)N3CC[C@@](C(=O)N[C@@H](Cc4ccccc4Cl)C(=O)N[C@@H](Cc4csc5ccccc45)C(=O)N[C@@H](CCC(N)=O)C(N)=O)(C3)NC(=O)[C@H](CC(N)=O)NC(=O)[C@H](Cc3ccccc3)NC(=O)[C@H](C)NC(=O)[C@H](C)NC(=O)[C@H](CN(CC(=O)O)Cc3c(F)c(F)c(F)c(F)c3F)NC(=O)[C@H](CC(=O)O)NC1=O)NC(=O)[C@H](CC(C)(C)C)NC(=O)[C@H](CC(=O)O)NC2=O (stereo partly drawn) [I-1449, Ac-PL3-Asp-Npg-B5-Asp-[Pfbn]GA-Ala-Ala-Phe-Asn-PyrS2-2C1F-BztA-Gln-NH2]
- IC50 ([1]; fluorescence polarization, beta-catenin, read-out: FP EC50): 16 nM
- IC50 [1, 3]: 16 nM
- IC50 [2, 4]: 29300 nM

SMILES: CC(=O)N1CCC[C@]12CC=CCCCC1(CCCC=CCCCOC(=O)N3CC[C@@](C(=O)N[C@@H](Cc4ccsc4)C(=O)N[C@@H](Cc4csc5ccccc45)C(=O)N[C@@H](CCC(N)=O)C(N)=O)(C3)NC(=O)[C@H](CC(N)=O)NC(=O)[C@H](Cc3ccccc3)NC(=O)[C@H](C)NC(=O)[C@H](C)NC(=O)[C@H](Cc3cccc(-c4nnn[nH]4)c3)NC(=O)[C@H](CC(=O)O)NC1=O)NC(=O)[C@H](CC(C)(C)C)NC(=O)[C@H](CC(=O)O)NC2=O (stereo partly drawn) [I-1578, Ac-PL3-Asp-Npg-B5-Asp-3TzF-Ala-Ala-Phe-Asn-PyrS2-3Thi-BztA-Gln-NH2]
- IC50 [1, 3]: 11 nM
- IC50 [2, 4]: > 20000 nM

SMILES: CC(=O)N1CCC[C@]12CC=CCCCC1(CCCC=CCCCOC(=O)N3CC[C@@](C(=O)N[C@@H](Cc4ccsc4)C(=O)N[C@@H](Cc4cccc(Cl)c4)C(=O)N[C@@H](C)C(N)=O)(C3)NC(=O)[C@H](C(C)C)NC(=O)[C@H](Cc3ccccc3)NC(=O)[C@H](C)NC(=O)[C@H](CCC(N)=O)NC(=O)[C@H](Cc3cccc(C(=O)O)c3)NC(=O)[C@H](CC(=O)O)NC1=O)NC(=O)[C@H](CC(C)(C)C)NC(=O)[C@H](CC(=O)O)NC2=O (stereo partly drawn) [I-2225, Ac-PL3-Asp-Npg-B5-Asp-3COOHF-Gln-Ala-Phe-Val-PyrS2-3Thi-3C1F-Ala-NH2]
- IC50 [1, 3]: 13 nM
- IC50 [2, 4]: 7800 nM

SMILES: CC(=O)N1CCC[C@]12CC=CCCCC1(CCCC=CCCCOC(=O)N3CC[C@@](C(=O)N[C@@H](Cc4ccsc4)C(=O)N[C@@H](Cc4csc5ccccc45)C(=O)N[C@@H](CCC(N)=O)C(N)=O)(C3)NC(=O)[C@H](CC(N)=O)NC(=O)[C@H](Cc3cccc(C(=O)O)c3)NC(=O)[C@H](C)NC(=O)[C@H](C)NC(=O)[C@H](CCc3ccc(O)cc3)NC(=O)[C@H](CC(=O)O)NC1=O)NC(=O)[C@H](CC(C)(C)C)NC(=O)[C@H](CC(=O)O)NC2=O (stereo partly drawn) [I-2115, Ac-PL3-Asp-Npg-B5-Asp-hTyr-Ala-Ala-3COOHF-Asn-PyrS2-3Thi-BztA-Gln-NH2]
- IC50 [1, 3]: 29 nM
- IC50 ([2]; read-out: NanoBRET Abs IC50): > 20000 nM

SMILES: CC(=O)N1CCC[C@]12CC=CCCCC1(CCCC=CCCCOC(=O)N3CC[C@@](C(=O)N[C@@H](Cc4ccccc4C(F)(F)F)C(=O)N[C@@H](Cc4csc5ccccc45)C(=O)N[C@@H](C)C(N)=O)(C3)NC(=O)[C@H](CC(C)C)NC(=O)[C@H](Cc3ccccc3)NC(=O)[C@H](C)NC(=O)[C@H](CC(N)=O)NC(=O)[C@H](Cc3cccc(C(=O)O)c3)NC(=O)[C@H](CC(=O)O)NC1=O)NC(=O)[C@H](CC(C)(C)C)NC(=O)[C@H](CC(=O)O)NC2=O (stereo partly drawn) [I-2058, Ac-PL3-Asp-Npg-B5-Asp-3COOHF-Asn-Ala-Phe-Leu-PyrS2-2F3MeF-BztA-Ala-NH2]
- IC50 [1, 3]: 10 nM
- IC50 ([2]; read-out: NanoBRET Abs IC50): 3900 nM
